Results: article PMC5376947, “Cytotoxicity of Zardaverine in Embryonal Rhabdomyosarcoma from a Costello Syndrome Patient” (Frontiers in Oncology, 2017)
Like-named read-outs stand apart in the source and are kept apart here.

Key:
PDE4 = details: PDE 4, read-out: Reported PDE inhibition IC50, cited from earlier work
[1] = test system: CS242 ERMS (screening) cells; assay: CS242 ERMS (screening) cell viability assay, CellTiter-Glo, 72 h; details: 72 h, top 18.8, 75 or 93.8 μM, mean ± SD (n = 3)
Experimental: To generate cells optimized for high-throughput screening (HTS), one vial of frozen cells from the CS242 ERMS (initial) master cell bank was thawed in a 37°C water bath for 2 min, diluted by dropwise addition of 10 volumes of PBS, pelleted at 200 × g for 5 min, resuspended in PBS, pelleted, resuspended in medium, and transferred to a T75 flask. Cells were grown to 70% confluence over 27 days, with media changes every 3 days. Cells were then detached by trypsin treatment as described above [see CS242 ERMS (Initial)] and split at 1:20 into T150 flasks, giving 20 individual cultures at passage 7. After growth for a further 27 days with media changes every 3 days, cells reached 70% confluence and were detached and frozen as described above [see CS242 ERMS (Initial)] to give a working cell bank at passage 8.
Cell growth in 384-well plates was assessed daily for 5 days to determine the optimal starting cell number giving progressive growth suitable for a 72-h cell viability assay. One vial of CS242 ERMS cells was thawed from the screening bank and grown in a T75 flask until confluence was >70%, after which cells were detached using trypsin and counted as described above [see CS242 ERMS (Zardaverine Resistant)].
Using an electronic 16-channel pipettor (Finnpipette Novus MCP16), 40 μl of each cell dilution was dispensed into two columns of a TC-treated opaque white 384-well plate, giving a range of 10,000 to 78 cells/well. Columns 1, 2, 23, and 24 were filled with media alone (40 μl/well). Five replicate plates were covered with MicroClime environmental lids (Labcyte) to minimize evaporation and incubated at 37°C, 5% CO2 for 24, 48, 72, 96, and 120 h, respectively. A sixth plate was prepared for determination of cell viability at the time of cell seeding. To determine cell viability, plates were allowed to cool to room temperature for 1 h after removal from 37°C incubation, 20 μl/well of CellTiter-Glo was added using a MicroFlo Select microplate reagent dispenser (BioTek, Winooski, VT, USA), and luminescence was measured after an additional 30 min at room temperature using an EnVision microplate reader (PerkinElmer, Waltham, MA, USA).
The IC50 of dactinomycin was determined using cells passaged once from the CS242 ERMS (screening) cell bank [see CS242 ERMS (Screening)]. Cells were thawed, grown to 70% confluence over 3 days in a T75 flask, detached by trypsin treatment, seeded at 1,250 cells in 30 μl of media/well in 384-well opaque white TC plates, and allowed to attach overnight. […] After 72 h of cell growth in the presence of dactinomycin, 20 μl of CellTiter-Glo was added, and cell viability was determined as described above (see Cell Viability Assay Development). Percent viability was determined from luminescence values using high controls (no dactinomycin) and low controls (media alone; no cells), and IC50 values were calculated using four-parameter dose–response curve fitting analysis in GraphPad Prism.
The 2,000-compound Microsource Spectrum library was screened using a fresh batch of CS242 ERMS (screening) cells for each HTS run, prepared as described above (see Cell Viability Assay Development). […] Media alone was added to low control (background) wells in columns 2 and 24. Plates were covered using MicroClime environmental lids (Labcyte), and cells were allowed to attach overnight (≤12 h) at 37°C in an atmosphere of 5% CO2.
Compounds were delivered to columns 3–22 of assay plates containing attached cells via an intermediate dilution. […] Likewise, DMSO was added to columns 1, 2, 23, and 24 for high and low controls, matching the 0.06% DMSO in the test wells.

PDE3 = details: PDE 3, read-out: Reported PDE inhibition IC50, cited from earlier work
[2] = test system: glucocorticoid receptor (GR) activation; design: method as in earlier work; details: 18 h treatment; ref [30]; cited from earlier work
[3] = read-out: CS242 ERMS viability IC50, Table 3 PDE inhibitor panel
[4] = Homo sapiens, read-out: CS242 ERMS viability IC50, Table 3 PDE inhibitor panel

CCCCOc1cc(CC2CNC(=O)N2)ccc1OC (stereo not shown) [Ro 20-1724]
IC50 (PDE4; ref [23]): 2000 nM | IC50 [1, 3]: > 18800 nM

CN(C(=O)CCCOc1ccc2[nH]c(=O)ccc2c1)C1CCCCC1 [Cilostamide]
IC50 (PDE3; ref [19], [20]): 27 nM | activity in GR activation screen, in words [2]: inactive | IC50 [1, 4]: > 18800 nM

COc1ccc([C@H](Cc2ccncc2)c2ccccc2)cc1OC1CCCC1 [CDP 840]
IC50 (PDE4; ref [15]): 12 nM | IC50 [1, 4]: 27800 nM

COc1ccc(C(=O)Nc2c(Cl)cncc2Cl)cc1OC1CCCC1 [Piclamilast]
IC50 (PDE4; ref [17]): 1 nM | IC50 [1, 4]: 55800 nM

CN/C(=N\c1ccc(C2=NNC(=O)CC2C)cc1)NC#N (stereo not shown) [Siguazodan]
IC50 (PDE3; ref [21]): 117 nM | IC50 [1, 4]: > 93800 nM

O=C1CCc2cc(OCCCCc3nnnn3C3CCCCC3)ccc2N1 [Cilostazol]
IC50 (PDE3; ref [24]): 200 nM | IC50 [1, 4]: > 93800 nM

COc1cc2c(cc1OC)-c1c/c(=N\c3c(C)cc(C)cc3C)n(C)c(=O)n1CC2 [Trequinsin]
IC50 (PDE3; ref [16]): 0.25 nM | IC50 [1, 4]: 36500 nM

O=c1c2cccnc2n(-c2cccc([N+](=O)[O-])c2)c(=O)n1Cc1ccncc1 [RS 25344]
IC50 (PDE4; ref [25]): 0.28 nM | IC50 [1, 3]: > 93800 nM

Cc1[nH]c(=O)c(C#N)cc1-c1ccncc1 [Milrinone]
IC50 (PDE3; ref [21]): 56 nM | IC50 [1, 4]: > 18800 nM

(R)-(−)-rolipram
IC50 (PDE4; ref [22]): 220 nM | IC50 [1, 3]: > 18800 nM

CCc1ccc2c(-c3cccc(Cl)c3)nc(=O)n(CC)c2n1 [YM 976, 4-(3-chlorophenyl)-1,7-diethylpyrido[2,3-d]pyrimidin-2(1H)-one]
IC50 (PDE4; ref [18]): 2.2 nM | IC50 [1, 4]: 60700 nM

CCCn1c(=O)c(C)cn2nc(N)nc12 [ICI 63197]
IC50 (PDE4; ref [26]): 35 nM | IC50 [1, 3]: > 93800 nM
